Measurements as given in PubChem BioAssay AID1259407 (Chemical Carcinogenesis Research Information System (CCRIS), 2018).
Activity calls are given as the source filed them. No rule for the calls is given here.

System: CCRIS mutagenicity, Ames/micronucleus/aberration tests
Assay: CCRIS mutagenicity studies
[1] = Test System: AMES SALMONELLA TYPHIMURIUM, Strain/Indicator: TA98, Metabolic Activation: NONE, Method: PREINCUBATION
[2] = Test System: AMES SALMONELLA TYPHIMURIUM, Strain/Indicator: TA100, Metabolic Activation: NONE, Method: PREINCUBATION
[3] = Test System: AMES SALMONELLA TYPHIMURIUM, Strain/Indicator: TA1535, Metabolic Activation: NONE, Method: PREINCUBATION
[4] = Test System: AMES SALMONELLA TYPHIMURIUM, Strain/Indicator: TA1537, Metabolic Activation: NONE, Method: PREINCUBATION
[5] = Test System: AMES SALMONELLA TYPHIMURIUM, Strain/Indicator: TA100, Metabolic Activation: RAT, LIVER, S-9, AROCLOR 1254

Measured: mutagenic call

CC(O)CN(CC(C)O)CC(C)O (stereo not given) (tested in a mixture with another compound)
inactive: [1] inactive; negative | Test System: AMES SALMONELLA TYPHIMURIUM, Strain/Indicator: TA98, Metabolic Activation: RAT LIVER S-9, AROCLOR 1254, 10%, Method: PREINCUBATION inactive; negative | [2] inactive; negative | Test System: AMES SALMONELLA TYPHIMURIUM, Strain/Indicator: TA100, Metabolic Activation: RAT LIVER S-9, AROCLOR 1254, 10%, Method: PREINCUBATION inactive; negative | [3] inactive; negative | Test System: AMES SALMONELLA TYPHIMURIUM, Strain/Indicator: TA1535, Metabolic Activation: RAT LIVER S-9, AROCLOR 1254, 10%, Method: PREINCUBATION inactive; negative | [4] inactive; negative | Test System: AMES SALMONELLA TYPHIMURIUM, Strain/Indicator: TA1537, Metabolic Activation: RAT LIVER S-9, AROCLOR 1254, 10%, Method: PREINCUBATION inactive; negative | Test System: UDS RAT HEPATOCYTES, Strain/Indicator: THYMIDINE INCORPORATION, Metabolic Activation: NONE, Method: AUTORADIOGRAPHY inactive; negative

Cc1cc(C)c2c3c(cc4ccccc42)-c2ccccc2-c13
active: [5] active; positive

CCCCOCCO
active: Test System: AMES SALMONELLA TYPHIMURIUM, Strain/Indicator: TA97A, Metabolic Activation: RAT, LIVER, S-9, AROCLOR 1254, Method: STANDARD PLATE active; positive | Test System: CHINESE HAMSTER V-79, Strain/Indicator: V-79 (HPRT)/6-THIOGUANINE, Metabolic Activation: NONE active; positive
inactive: Test System: AMES SALMONELLA TYPHIMURIUM, Strain/Indicator: TA97, Metabolic Activation: HAMSTER, LIVER, S-9, AROCLOR 1254 (10 OR 30%), Method: PREINCUBATION inactive; negative | Test System: AMES SALMONELLA TYPHIMURIUM, Strain/Indicator: TA97, Metabolic Activation: NONE, Method: PREINCUBATION inactive; negative | Test System: AMES SALMONELLA TYPHIMURIUM, Strain/Indicator: TA97, Metabolic Activation: RAT, LIVER, S-9, AROCLOR 1254 (5, 10 OR 30%), Method: PREINCUBATION inactive; negative | Test System: AMES SALMONELLA TYPHIMURIUM, Strain/Indicator: TA97A, Metabolic Activation: RAT, LIVER, S-9, AROCLOR 1254 (2.5 OR 10%), Method: STANDARD PLATE inactive; negative | Test System: AMES SALMONELLA TYPHIMURIUM, Strain/Indicator: TA98, Metabolic Activation: HAMSTER, LIVER, S-9, AROCLOR 1254 (10 OR 30%), Method: PREINCUBATION inactive; negative | [1] inactive; negative | Test System: AMES SALMONELLA TYPHIMURIUM, Strain/Indicator: TA98, Metabolic Activation: NONE, Method: STANDARD PLATE inactive; negative | Test System: AMES SALMONELLA TYPHIMURIUM, Strain/Indicator: TA98, Metabolic Activation: RAT, LIVER, S-9, AROCLOR 1254 (10 OR 30%), Method: PREINCUBATION inactive; negative | Test System: AMES SALMONELLA TYPHIMURIUM, Strain/Indicator: TA98, Metabolic Activation: RAT, LIVER, S-9, AROCLOR 1254, Method: STANDARD PLATE inactive; negative | Test System: AMES SALMONELLA TYPHIMURIUM, Strain/Indicator: TA100, Metabolic Activation: HAMSTER, LIVER, S-9, AROCLOR 1254 (10 OR 30%), Method: PREINCUBATION inactive; negative | [2] inactive; negative | Test System: AMES SALMONELLA TYPHIMURIUM, Strain/Indicator: TA100, Metabolic Activation: NONE, Method: STANDARD PLATE inactive; negative | Test System: AMES SALMONELLA TYPHIMURIUM, Strain/Indicator: TA100, Metabolic Activation: RAT, LIVER, S-9, AROCLOR 1254 (2.5 OR 10%), Method: STANDARD PLATE inactive; negative | Test System: AMES SALMONELLA TYPHIMURIUM, Strain/Indicator: TA100, Metabolic Activation: RAT, LIVER, S-9, AROCLOR 1254 (10 OR 30%), Method: PREINCUBATION inactive; negative | Test System: AMES SALMONELLA TYPHIMURIUM, Strain/Indicator: TA100, Metabolic Activation: RAT, LIVER, S-9, AROCLOR 1254, Method: STANDARD PLATE inactive; negative | Test System: AMES SALMONELLA TYPHIMURIUM, Strain/Indicator: TA102, Metabolic Activation: NONE, Method: STANDARD PLATE inactive; negative | Test System: AMES SALMONELLA TYPHIMURIUM, Strain/Indicator: TA102, Metabolic Activation: RAT, LIVER, S-9, AROCLOR 1254, Method: STANDARD PLATE inactive; negative | Test System: AMES SALMONELLA TYPHIMURIUM, Strain/Indicator: TA1535, Metabolic Activation: HAMSTER, LIVER, S-9, AROCLOR 1254 (10 OR 30%), Method: PREINCUBATION inactive; negative | [3] inactive; negative | Test System: AMES SALMONELLA TYPHIMURIUM, Strain/Indicator: TA1535, Metabolic Activation: RAT, LIVER, S-9, AROCLOR 1254 (10 OR 30%), Method: PREINCUBATION inactive; negative | Test System: AMES SALMONELLA TYPHIMURIUM, Strain/Indicator: TA1537, Metabolic Activation: HAMSTER, LIVER, S-9, AROCLOR 1254 (30%), Method: PREINCUBATION inactive; negative | [4] inactive; negative | Test System: AMES SALMONELLA TYPHIMURIUM, Strain/Indicator: TA1537, Metabolic Activation: RAT, LIVER, S-9, AROCLOR 1254 (30%), Method: PREINCUBATION inactive; negative | Test System: CHINESE HAMSTER OVARY, Strain/Indicator: CHO-AS52/6-THIOGUANINE, Metabolic Activation: NONE inactive; negative | Test System: E. COLI, Strain/Indicator: WP2 UVRA, Metabolic Activation: NONE, Method: STANDARD PLATE inactive; negative | Test System: E. COLI, Strain/Indicator: WP2 UVRA, Metabolic Activation: RAT, LIVER, S-9, AROCLOR 1254 (2.5 OR 10%), Method: STANDARD PLATE inactive; negative

O=[N+]([O-])c1ccc2c(c1)CCc1c-2ccc2c1CCCC2
inactive: Test System: AMES SALMONELLA TYPHIMURIUM, Strain/Indicator: TA100(NR), Metabolic Activation: NONE inactive; negative
active: Test System: AMES SALMONELLA TYPHIMURIUM, Strain/Indicator: TA98(1,8-DNP6), Metabolic Activation: NONE active; positive | Test System: AMES SALMONELLA TYPHIMURIUM, Strain/Indicator: TA98(1,8-DNP6), Metabolic Activation: RAT, LIVER, S-9, AROCLOR 1254 active; positive | Test System: AMES SALMONELLA TYPHIMURIUM, Strain/Indicator: TA98(NR), Metabolic Activation: NONE active; positive | Test System: AMES SALMONELLA TYPHIMURIUM, Strain/Indicator: TA98(NR), Metabolic Activation: RAT, LIVER, S-9, AROCLOR 1254 active; positive | Test System: AMES SALMONELLA TYPHIMURIUM, Strain/Indicator: TA98, Metabolic Activation: NONE active; positive | Test System: AMES SALMONELLA TYPHIMURIUM, Strain/Indicator: TA98, Metabolic Activation: RAT, LIVER, S-9, AROCLOR 1254 active; positive | Test System: AMES SALMONELLA TYPHIMURIUM, Strain/Indicator: TA100(NR), Metabolic Activation: RAT, LIVER, S-9, AROCLOR 1254 active; positive | Test System: AMES SALMONELLA TYPHIMURIUM, Strain/Indicator: TA100, Metabolic Activation: NONE active; positive | [5] active; positive | Test System: AMES SALMONELLA TYPHIMURIUM, Strain/Indicator: TA104, Metabolic Activation: NONE active; positive | Test System: AMES SALMONELLA TYPHIMURIUM, Strain/Indicator: TA104, Metabolic Activation: RAT, LIVER, S-9, AROCLOR 1254 active; positive
